This test deals with F508delCFTR (Homo sapiens, UniProt P13569, DEL508-508). The test is described as follows: Cell Surface Expression-Horse Radish Peroxidase (CSE-HRP) assay. It counts as cell-based. On the set-up: expressed in transfected cells; host or cells: CFBE41o- human lung derived epithelial cell line, doxycycline-inducible. The note with it: CFBE4lo-F508delCFTR-HRP cells; for EC50: 18-24 hours at 33° C., 8-point curve, highest concentration 20 μM, luminescence readout; for Emax / Maximum % activity (%): maximum % activity at any tested concentration, normalized to on-plate positive control (3 μM Example 1). The gist of the method:
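Following 18-24 h compound exposure at 33° C. Expression was doxycycline-induced beforehand. % activity versus DMSO and a 3 μM corrector control gave maximum activity and EC50 from a variable-Hill sigmoidal fit.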

The source of these data is US9642831B2, “Substituted chromanes and method of use” (AbbVie S.á.r.l., priority 2014, dated 2017).

F508delCFTR, sequence (P13569 with tags, fused parts or gaps DEL508-508): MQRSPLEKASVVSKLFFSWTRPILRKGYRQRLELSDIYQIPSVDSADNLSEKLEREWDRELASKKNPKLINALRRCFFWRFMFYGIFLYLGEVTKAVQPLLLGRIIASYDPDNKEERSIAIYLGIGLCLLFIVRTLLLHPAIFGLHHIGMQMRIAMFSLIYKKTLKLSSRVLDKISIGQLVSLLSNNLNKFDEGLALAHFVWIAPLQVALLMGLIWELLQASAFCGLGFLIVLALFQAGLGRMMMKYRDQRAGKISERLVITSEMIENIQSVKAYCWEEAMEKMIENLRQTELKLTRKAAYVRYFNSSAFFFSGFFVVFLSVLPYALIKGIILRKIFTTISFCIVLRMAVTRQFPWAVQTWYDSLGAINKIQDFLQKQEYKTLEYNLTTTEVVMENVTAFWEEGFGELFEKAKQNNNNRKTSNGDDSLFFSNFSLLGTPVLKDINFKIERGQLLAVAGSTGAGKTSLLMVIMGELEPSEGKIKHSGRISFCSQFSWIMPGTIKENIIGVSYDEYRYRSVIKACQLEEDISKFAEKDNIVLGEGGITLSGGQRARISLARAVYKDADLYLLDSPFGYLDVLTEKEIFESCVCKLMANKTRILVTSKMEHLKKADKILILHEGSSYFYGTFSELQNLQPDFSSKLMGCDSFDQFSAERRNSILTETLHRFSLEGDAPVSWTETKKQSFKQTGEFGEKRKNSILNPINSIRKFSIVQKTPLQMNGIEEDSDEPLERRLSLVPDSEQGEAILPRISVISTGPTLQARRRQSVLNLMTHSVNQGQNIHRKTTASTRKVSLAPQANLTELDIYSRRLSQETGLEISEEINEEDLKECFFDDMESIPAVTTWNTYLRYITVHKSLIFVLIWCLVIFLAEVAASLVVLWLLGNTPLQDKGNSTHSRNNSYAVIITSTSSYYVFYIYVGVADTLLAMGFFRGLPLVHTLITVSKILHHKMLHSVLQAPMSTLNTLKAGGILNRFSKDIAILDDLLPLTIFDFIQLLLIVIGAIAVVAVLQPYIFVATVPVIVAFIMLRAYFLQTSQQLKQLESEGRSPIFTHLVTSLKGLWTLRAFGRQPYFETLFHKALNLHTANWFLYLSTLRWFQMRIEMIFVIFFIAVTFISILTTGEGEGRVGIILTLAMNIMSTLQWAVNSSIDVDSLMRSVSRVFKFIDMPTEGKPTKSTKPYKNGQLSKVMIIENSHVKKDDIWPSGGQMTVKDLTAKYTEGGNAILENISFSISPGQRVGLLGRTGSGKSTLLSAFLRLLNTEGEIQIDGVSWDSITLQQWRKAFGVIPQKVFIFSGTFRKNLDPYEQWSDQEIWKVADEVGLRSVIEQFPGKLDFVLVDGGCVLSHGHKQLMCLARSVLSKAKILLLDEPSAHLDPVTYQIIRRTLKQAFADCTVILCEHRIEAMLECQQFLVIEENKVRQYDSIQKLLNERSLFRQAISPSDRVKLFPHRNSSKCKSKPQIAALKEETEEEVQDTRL

The molecule `COc1ccc2c(c1)O[C@@H](C(=O)NC(C)(C)CO)C[C@@H]2NC(=O)C1(c2ccc3c(c2)OC(F)(F)O3)CC1` (racemic) [Example 189, rac-(2R,4S)-4-({[1-(2,2-difluoro-1,3-benzodioxol-5-yl)cyclopropyl]carbonyl}amino)-N-(1-hydroxy-2-methylpropan-2-yl)-7-methoxy-3,4-dihydro-2H-chromene-2-carboxamide] showed an EC50 of 3.83 µM and an Emax of 58%.

Molecule `COc1ccc2c(c1)O[C@@H](C(=O)NC(CO)c1ccccc1)C[C@@H]2NC(=O)C1(c2ccc3c(c2)OC(F)(F)O3)CC1` (mixture of isomers) [Example 190, rac-(2R,4S)-4-({[1-(2,2-difluoro-1,3-benzodioxol-5-yl)cyclopropyl]carbonyl}amino)-N-(2-hydroxy-1-phenylethyl)-7-methoxy-3,4-dihydro-2H-chromene-2-carboxamide] showed a 50% effective concentration (EC50) of 2.79 µM and a maximal response (Emax) of 39%.

For the molecule `COc1ccc2c(c1)O[C@@H](C(=O)NC1CCS(=O)(=O)CC1)C[C@@H]2NC(=O)C1(c2ccc3c(c2)OC(F)(F)O3)CC1` (racemic) [Example 191, rac-(2R,4S)-4-({[1-(2,2-difluoro-1,3-benzodioxol-5-yl)cyclopropyl]carbonyl}amino)-N-(1,1-dioxidotetrahydro-2H-thiopyran-4-yl)-7-methoxy-3,4-dihydro-2H-chromene-2-carboxamide], the response was half-maximal at 4.1 µM (EC50) and the Emax is 51%.

Turning to `COc1ccc2c(c1)O[C@@H](C(=O)NC1(C(F)(F)F)COC1)C[C@@H]2NC(=O)C1(c2ccc3c(c2)OC(F)(F)O3)CC1` (racemic) [Example 192, rac-(2R,4S)-4-({[1-(2,2-difluoro-1,3-benzodioxol-5-yl)cyclopropyl]carbonyl}amino)-7-methoxy-N-[3-(trifluoromethyl)oxetan-3-yl]-3,4-dihydro-2H-chromene-2-carboxamide], a half-maximal response (EC50) required 4.4 µM and the Emax is 29%.

Molecule `COc1ccc2c(c1)O[C@@H](C(=O)N1CCC(F)(F)CC1)C[C@@H]2NC(=O)C1(c2ccc3c(c2)OC(F)(F)O3)CC1` (racemic) [Example 193, rac-1-(2,2-difluoro-1,3-benzodioxol-5-yl)-N-{(2R,4S)-2-[(4,4-difluoropiperidin-1-yl)carbonyl]-7-methoxy-3,4-dihydro-2H-chromen-4-yl}cyclopropanecarboxamide] yielded a concentration giving a half-maximal response (EC50) of 0.47 µM and a maximum response (Emax) of 68%.

For `COc1ccc2c(c1)O[C@@H](C(=O)N1CCCOCC1)C[C@@H]2NC(=O)C1(c2ccc3c(c2)OC(F)(F)O3)CC1` (racemic) [Example 194, rac-1-(2,2-difluoro-1,3-benzodioxol-5-yl)-N-[(2R,4S)-7-methoxy-2-(1,4-oxazepan-4-ylcarbonyl)-3,4-dihydro-2H-chromen-4-yl]cyclopropanecarboxamide], the EC50 is 0.88 µM and the Emax was 68%.

In turn, `COc1ccc2c(c1)O[C@@H](C(=O)N(C)C1COC1)C[C@@H]2NC(=O)C1(c2ccc3c(c2)OC(F)(F)O3)CC1` (racemic) [Example 195, rac-(2R,4S)-4-({[1-(2,2-difluoro-1,3-benzodioxol-5-yl)cyclopropyl]carbonyl}amino)-7-methoxy-N-methyl-N-(oxetan-3-yl)-3,4-dihydro-2H-chromene-2-carboxamide] displayed an EC50 of 7.53 µM and an Emax of 37%.

Molecule `COc1ccc2c(c1)O[C@@H](C(=O)N1CCOCC1)C[C@@H]2NC(=O)C1(c2ccc3c(c2)OC(F)(F)O3)CC1` (racemic) [Example 196, rac-1-(2,2-difluoro-1,3-benzodioxol-5-yl)-N-[(2R,4S)-7-methoxy-2-(morpholin-4-ylcarbonyl)-3,4-dihydro-2H-chromen-4-yl]cyclopropanecarboxamide] had an EC50 of 1.24 µM and an Emax of 67%.

`COc1ccc2c(c1)O[C@@H](C(=O)NC(CO)c1ccccc1OC)C[C@@H]2NC(=O)C1(c2ccc3c(c2)OC(F)(F)O3)CC1` (mixture of isomers) [Example 197, rac-(2R,4S)-4-({[1-(2,2-difluoro-1,3-benzodioxol-5-yl)cyclopropyl]carbonyl}amino)-N-[2-hydroxy-1-(2-methoxyphenyl)ethyl]-7-methoxy-3,4-dihydro-2H-chromene-2-carboxamide] had an EC50 of 2.1 µM and an Emax of 73%.

On to `COc1ccc2c(c1)O[C@@H](C(=O)NCCc1cccc(O)c1)C[C@@H]2NC(=O)C1(c2ccc3c(c2)OC(F)(F)O3)CC1` (racemic) [Example 198, rac-(2R,4S)-4-({[1-(2,2-difluoro-1,3-benzodioxol-5-yl)cyclopropyl]carbonyl}amino)-N-[2-(3-hydroxyphenyl)ethyl]-7-methoxy-3,4-dihydro-2H-chromene-2-carboxamide], for which a half-maximal effect (EC50) was put at 1.71 µM and the Emax came to 67%.

As for `COc1ccc2c(c1)O[C@@H](C(=O)NC(CO)CO)C[C@@H]2NC(=O)C1(c2ccc3c(c2)OC(F)(F)O3)CC1` (racemic) [Example 199, rac-(2R,4S)-4-({[1-(2,2-difluoro-1,3-benzodioxol-5-yl)cyclopropyl]carbonyl}amino)-N-(1,3-dihydroxypropan-2-yl)-7-methoxy-3,4-dihydro-2H-chromene-2-carboxamide], the response was half-maximal at 6.89 µM (EC50) and the Emax is 27%.

The molecule `COc1ccc2c(c1)O[C@@H](C(=O)NC1c3ccccc3CC1O)C[C@@H]2NC(=O)C1(c2ccc3c(c2)OC(F)(F)O3)CC1` (mixture of isomers) [Example 200, rac-(2R,4S)-4-({[1-(2,2-difluoro-1,3-benzodioxol-5-yl)cyclopropyl]carbonyl}amino)-N-(2-hydroxy-2,3-dihydro-1H-inden-1-yl)-7-methoxy-3,4-dihydro-2H-chromene-2-carboxamide] gave an EC50 of 2.35 µM and a maximum response (Emax) of 61%.

`COc1ccc2c(c1)O[C@@H](C(=O)N1CCC(C(=O)O)C1)C[C@@H]2NC(=O)C1(c2ccc3c(c2)OC(F)(F)O3)CC1` (mixture of isomers) [Example 201, rac-1-{[(2R,4S)-4-({[1-(2,2-difluoro-1,3-benzodioxol-5-yl)cyclopropyl]carbonyl}amino)-7-methoxy-3,4-dihydro-2H-chromen-2-yl]carbonyl}pyrrolidine-3-carboxylic acid]: a half-maximal response (EC50) required 7.92 µM and the Emax was found to be 35%.

With `CCOC(=O)c1csc([C@H]2C[C@H](NC(=O)C3(c4ccc5c(c4)OC(F)(F)O5)CC3)c3ccccc3O2)n1` (relative stereo) [Example 141, ethyl rel-2-[(2R,4S)-4-({[1-(2,2-difluoro-1,3-benzodioxol-5-yl)cyclopropyl]carbonyl}amino)-3,4-dihydro-2H-chromen-2-yl]-1,3-thiazole-4-carboxylate], the 50% effective concentration (EC50) amounted to 3.05 µM and the maximal effect (Emax) is 54%.

Consider `O=C(O)c1csc([C@H]2C[C@H](NC(=O)C3(c4ccc5c(c4)OC(F)(F)O5)CC3)c3ccccc3O2)n1` (relative stereo) [Example 144, rel-2-[(2R,4S)-4-({[1-(2,2-difluoro-1,3-benzodioxol-5-yl)cyclopropyl]carbonyl}amino)-3,4-dihydro-2H-chromen-2-yl]-1,3-thiazole-4-carboxylic acid], for which the EC50 is more than 20 µM and the maximal response (Emax) amounted to 11%.

`COc1ccc2c(c1)O[C@@H](c1ccc(C(=O)O)cn1)C[C@H]2NC(=O)C1(c2ccc3c(c2)OC(F)(F)O3)CC1` (relative stereo) [Example 165, rel-6-[(2R,4R)-4-({[1-(2,2-difluoro-1,3-benzodioxol-5-yl)cyclopropyl]carbonyl}amino)-7-methoxy-3,4-dihydro-2H-chromen-2-yl]pyridine-3-carboxylic acid] yielded an EC50 of 0.09 µM and an Emax of 123%.

In the case of `O=C(O)c1cnc(C2CC(NC(=O)C3(c4ccc5c(c4)OC(F)(F)O5)CC3)c3ccccc3O2)s1` (single isomer, unassigned) [Example 133], the midpoint of the response, the EC50, lay at 7.02 µM and the “Maximum % activity (%)” value came out at 25%.

Consider `O=C(O)c1cnc(C2CC(NC(=O)C3(c4ccc5c(c4)OC(F)(F)O5)CC3)c3ccccc3O2)s1` (single isomer, unassigned) [Example 136], for which a half-maximal response (EC50) required 3.36 µM and the “Maximum % activity (%)” value was determined as 90%.

In turn, `CCOC(=O)c1cccc([C@@H]2C[C@H](NC(=O)C3(c4ccc5c(c4)OC(F)(F)O5)CC3)c3ccncc3O2)c1` (stereo in doubt) [Example 24, ethyl rel-3-[(2S,4S)-4-({[1-(2,2-difluoro-1,3-benzodioxol-5-yl)cyclopropyl]carbonyl}amino)-3,4-dihydro-2H-pyrano[2,3-c]pyridin-2-yl]benzoate] gave an EC50 of 8.37 µM and a maximum response (Emax) of 63%.

Molecule `CCOC(=O)c1cccc([C@H]2C[C@@H](NC(=O)C3(c4ccc5c(c4)OC(F)(F)O5)CC3)c3ccncc3O2)c1` (stereo in doubt) [Example 25, ethyl rel-3-[(2R,4R)-4-({[1-(2,2-difluoro-1,3-benzodioxol-5-yl)cyclopropyl]carbonyl}amino)-3,4-dihydro-2H-pyrano[2,3-c]pyridin-2-yl]benzoate] came in with an EC50 of 3.91 µM and an Emax of 41%.

Molecule `CCOC(=O)c1cnc([C@@H]2C[C@H](NC(=O)C3(c4ccc5c(c4)OC(F)(F)O5)CC3)c3ccccc3O2)s1` (stereo in doubt) [Example 132, ethyl rel-2-[(2S,4S)-4-({[1-(2,2-difluoro-1,3-benzodioxol-5-yl)cyclopropyl]carbonyl}amino)-3,4-dihydro-2H-chromen-2-yl]-1,3-thiazole-5-carboxylate] had an EC50 of 3.44 µM and an Emax of 86%.
